The values below are quoted from earlier work in US20210000933A1, “TUMOR VACCINE” (CELL-MEDICINE, INC., priority 2019, published 2021).

Like-named read-outs stand apart in the source and are kept apart here.

Series [1] has as its system brain tumor.
For series [2], the system named is newly diagnosed glioblastoma. Particulars: bevacizumab used together with the standard therapy.
[3] abbreviates: 22 brain tumor cases, PDT then standard therapy.
[4] abbreviates: newly diagnosed glioblastoma cases (13 cases).

Turning to `C=Cc1c(C)c2cc3nc(c(CC(=O)N[C@@H](CC(=O)O)C(=O)O)c4[nH]c(cc5nc(cc1[nH]2)C(C)=C5CC)c(C)c4C(=O)O)[C@@H](CCC(=O)O)[C@@H]3C` [talaporphin sodium, talaporfin sodium], the Side reactions entry in series [1] (22 brain tumor cases) was “observed for only four cases, and all of them were mild”. For the same molecule, in series [1] (setting [3]), the “6-month progression-free survival rate” value is on record as 91% and the “12-month postoperative overall survival rate” value was 95.5%. In series [1] (glioblastoma cases), the mOS was 24.8 months and the mPFS is 12.0 months. Besides, in series [1] (setting [4]), the “6-month progression-free survival rate” value was 100% and the “12-month postoperative overall survival rate” value is on record as 100%.

Take “bevacizumab: antibody drug having a tumor neovascularization inhibitory effect”: in series [2], the mOS was 15.7 to 16.8 months and the mPFS is on record as 10.6 to 10.7 months.
